In patent US8846908B2, “Tricyclic carbamate JAK inhibitors” (Rigel Pharmaceuticals, Inc., priority 2008, dated 2014) one finds GI50 data, which are given here for four compounds.

A value given as a limit tells only on which side of the number the result lay.

In this experiment the target is BaF3 V617F cells (Homo sapiens, UniProt O60674, V617F, cells depend on it). Nature of the experiment: Proliferation assay, BaF3 V617F cells (Cell Titer-Glo). Type of experiment: cell-based, mouse. As to conditions: proliferation for 72 hours at 37° C., stated to show ability to inhibit JAK2 activity, read-out: IC50 (the source's name). The protocol: BaF3 V617F cells are maintained and plated in RPMI with 10% FBS. Plating density for these cells is 1×10^5 cells/mL.
Chain of BaF3 V617F cells (O60674 whole entry V617F): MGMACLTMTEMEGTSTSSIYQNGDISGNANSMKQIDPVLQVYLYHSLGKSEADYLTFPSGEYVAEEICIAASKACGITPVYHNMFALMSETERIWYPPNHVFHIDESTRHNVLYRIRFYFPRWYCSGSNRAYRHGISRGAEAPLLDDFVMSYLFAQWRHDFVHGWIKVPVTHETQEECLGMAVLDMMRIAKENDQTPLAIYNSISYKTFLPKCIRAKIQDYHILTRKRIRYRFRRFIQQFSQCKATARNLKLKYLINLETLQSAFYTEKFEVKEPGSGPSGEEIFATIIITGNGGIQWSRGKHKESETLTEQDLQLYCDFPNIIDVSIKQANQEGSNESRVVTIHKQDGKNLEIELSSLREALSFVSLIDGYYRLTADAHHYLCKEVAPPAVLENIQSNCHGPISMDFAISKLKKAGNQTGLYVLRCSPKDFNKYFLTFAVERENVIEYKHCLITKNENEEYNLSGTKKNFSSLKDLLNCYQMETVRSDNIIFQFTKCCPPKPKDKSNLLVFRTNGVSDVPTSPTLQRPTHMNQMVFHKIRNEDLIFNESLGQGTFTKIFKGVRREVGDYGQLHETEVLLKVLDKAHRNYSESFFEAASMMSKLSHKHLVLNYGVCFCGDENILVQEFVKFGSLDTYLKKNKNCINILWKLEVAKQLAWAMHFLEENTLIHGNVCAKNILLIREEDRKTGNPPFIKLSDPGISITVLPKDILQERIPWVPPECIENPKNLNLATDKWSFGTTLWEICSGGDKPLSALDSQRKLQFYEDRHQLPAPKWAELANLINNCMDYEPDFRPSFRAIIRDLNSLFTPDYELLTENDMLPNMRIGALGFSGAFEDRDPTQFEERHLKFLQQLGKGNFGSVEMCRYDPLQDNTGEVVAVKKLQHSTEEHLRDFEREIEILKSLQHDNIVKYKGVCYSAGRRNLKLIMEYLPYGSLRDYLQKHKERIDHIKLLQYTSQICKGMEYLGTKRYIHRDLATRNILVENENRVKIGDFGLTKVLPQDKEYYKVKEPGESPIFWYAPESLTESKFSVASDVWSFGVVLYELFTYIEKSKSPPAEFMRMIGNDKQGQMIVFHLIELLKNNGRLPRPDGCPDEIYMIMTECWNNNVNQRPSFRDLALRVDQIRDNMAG
The cells were resuspended in a corresponding medium at a required cell density (see above). 100μ of cell suspension was added to each well of a flat bottom 96 well white plate. The compound was serially diluted in DMSO from 5 mM in 3-fold dilutions, and then diluted 1:250 in the RPMI 1640 medium containing 5% FBS and pen/strep. 100 μL of resulting 2× compound solution was added per well in duplicate and the cells were allowed to proliferate for 72 hours at 37° C.
Proliferation was measured using Cell Titer-Glo. The substrate was thawed and allowed to come to room temperature. After removal of top 100 μL of medium from each well, 100 μL of the premixed Cell Titer-Glo reagent was added to each well. The plates were mixed on an orbital shaker for three minutes to induce lysis and incubated at ambient temperature for an additional five minutes to allow the signal to equilibrate. The Luminescence was read on the Wallac Plate Reader.
The results of the ability of the compounds of the invention to inhibit JAK2 activity, when tested in the above assay, are shown in the following Table 2 wherein the level of activity (i.e., the IC50) for each compound is indicated in Table 2. The compound numbers in Table 2 refers to the compounds disclosed herein as being prepared by the methods disclosed herein.
A general note: ATP-based viability assays read luminescence as a measure of living cells.

`Cc1cnc(Nc2ccc3c(c2)[C@H]2NC(=O)O[C@H]2C3)nc1Nc1ccc(OCc2cccnc2)cc1` [Compound 31, 5-Methyl-N2-[(3aR,8aS)-2-oxo-3,3a,8,8a-tetrahydro-2H-indeno[1,2-d]oxazol-5-yl]-N4-[4-(pyridin-3-ylmethoxy)phenyl]-2,4-pyrimidinediamine]: the GI50 fell in the range of 250 to 500 nM. Next, `O=C1N[C@@H]2c3cc(Nc4ncc(Cl)c(Nc5ccc(CNS(=O)(=O)C6CC6)cc5)n4)ccc3C[C@@H]2O1` [Compound 8, 5-Chloro-N4-[4-[[N-(cyclopropylsulfonyl)amino]methyl]phenyl]-N2-[(3aR,8aS)-2-oxo-3,3a,8,8a-tetrahydro-2H-indeno[1,2-d]oxazol-5-yl]-2,4-pyrimidinediamine]: less than 250 nM.

For the compound `Cc1cnc(Nc2ccc3c(c2)[C@@H]2NC(=O)O[C@@H]2C3)nc1Nc1ccc2c(c1)N(C)C(=O)C(C)(C)O2` [Compound 9, 5-Methyl-N2-[(3aS,8aR)-2-oxo-3,3a,8,8a-tetrahydro-2H-indeno[1,2-d]oxazol-5-yl]-N4-(2,2,4-trimethyl-3-oxo-benz[1,4]oxazin-6-yl)-2,4-pyrimidinediamine], the GI50 is 250 to 500 nM. Next, `Cc1cnc(Nc2ccc3c(c2)[C@@H]2NC(=O)O[C@@H]2C3)nc1Nc1cccc2c1CCC2` [Compound 20, N4-(Indan-4-yl]-5-methyl-N2-[(3aS,8aR)-2-oxo-3,3a,8,8a-tetrahydro-2H-indeno[1,2-d]oxazol-5-yl]-2,4-pyrimidinediamine]: less than 250 nM.
